In ChEMBL document CHEMBL3751798, “Targeting cancer cells with oleanolic and ursolic acid derived hydroxamates” (Bioorg Med Chem Lett, 2016):

How the values were obtained:
HT-29 = experiment: Cytotoxicity against human HT-29 cells after 96 hrs by SRB assay; format: functional, cell-based; settings: HT-29, 96 h
A549 = experiment: Cytotoxicity against human A549 cells after 96 hrs by SRB assay; format: functional, cell-based; settings: A549, 96 h
MCF7 = experiment: Cytotoxicity against human MCF7 cells after 96 hrs by SRB assay; format: functional, cell-based; settings: MCF7, 96 h
[1] = Cytotoxicity against human 518A2 cells after 96 hrs by SRB assay; format: functional, cell-based; settings: 518A2, 96 h
A2780 = experiment: Cytotoxicity against human A2780 cells after 96 hrs by SRB assay; format: functional, cell-based; settings: A2780, 96 h
FaDu = experiment: Cytotoxicity against human FADU cells after 96 hrs by SRB assay; format: functional, cell-based
[2] = Cytotoxicity against mouse NIH/3T3 cells after 96 hrs by SRB assay; format: cell-based; settings: NIH3T3, 96 h

| Compound | EC50 (HT-29) | EC50 (A549) | EC50 (MCF7) | EC50 [1] | EC50 (A2780) | EC50 (FaDu) | EC50 [2] |
| --- | --- | --- | --- | --- | --- | --- | --- |
| CON(C)C(=O)[C@]12CC[C@@H](C)[C@H](C)[C@H]1C1=CC[C@@H]3[C@@]4(C)CCC(=O)C(C)(C)[C@@H]4CC[C@@]3(C)[C@]1(C)CC2 | 18.7 µM | 8.7 µM | 10.7 µM | 15.5 µM | 4.5 µM | 8.3 µM | 18.5 µM |
| CC(=O)O[C@H]1CC[C@]2(C)[C@H]3CC=C4[C@@H]5CC(C)(C)CC[C@]5(C(=O)N(C)O)CC[C@@]4(C)[C@]3(C)CC[C@H]2C1(C)C | 10.6 µM | 10.8 µM | 6.2 µM | 9.4 µM | 7.5 µM | 12.1 µM | 12.3 µM |
| CC(=O)O[C@H]1CC[C@]2(C)[C@H]3CC=C4[C@@H]5CC(C)(C)CC[C@]5(C(=O)NO)CC[C@@]4(C)[C@]3(C)CC[C@H]2C1(C)C | 4.9 µM | 3.1 µM | 9.5 µM | 4.2 µM | 2.6 µM | 10.6 µM | 2.6 µM |
| CON(C)C(=O)[C@]12CCC(C)(C)C[C@H]1C1=CC[C@@H]3[C@@]4(C)CC[C@H](OC(C)=O)C(C)(C)[C@@H]4CC[C@@]3(C)[C@]1(C)CC2 | 13.1 µM | 17.6 µM | 7.5 µM | 8.4 µM | 6.8 µM | 9.4 µM | 13.3 µM |
| CON(C)C(=O)[C@]12CCC(C)(C)C[C@H]1C1=CC[C@@H]3[C@@]4(C)CCC(=O)C(C)(C)[C@@H]4CC[C@@]3(C)[C@]1(C)CC2 | 15.6 µM | 5.6 µM | 16.4 µM | 20.9 µM | 8.8 µM | 24.3 µM | 13.7 µM |
| CONC(=O)[C@]12CC[C@@H](C)[C@H](C)[C@H]1C1=CC[C@@H]3[C@@]4(C)CC[C@H](O)C(C)(C)[C@@H]4CC[C@@]3(C)[C@]1(C)CC2 | 15.4 µM | 8.3 µM | 10 µM | 14.3 µM | 12.1 µM | 11.2 µM | 16.2 µM |
| C[C@H]1[C@H](C)CC[C@]2(C(=O)N(C)O)CC[C@]3(C)C(=CC[C@@H]4[C@@]5(C)CC[C@H](O)C(C)(C)[C@@H]5CC[C@]43C)[C@H]12 | 12.3 µM | 9.7 µM | 15.4 µM | 12.5 µM | 4.5 µM | 15.1 µM | 10.1 µM |
| CONC(=O)[C@]12CC[C@@H](C)[C@H](C)[C@H]1C1=CC[C@@H]3[C@@]4(C)CCC(=O)C(C)(C)[C@@H]4CC[C@@]3(C)[C@]1(C)CC2 | 12.9 µM | 9.2 µM | 11.2 µM | 12.9 µM | 14.3 µM | 12 µM | 14.3 µM |
| CC(=O)O[C@H]1CC[C@]2(C)[C@H]3CC=C4[C@@H]5[C@@H](C)[C@H](C)CC[C@]5(C(=O)NO)CC[C@@]4(C)[C@]3(C)CC[C@H]2C1(C)C | 3.5 µM | 3.9 µM | 3.3 µM | 3.6 µM | 2.7 µM | 6.4 µM | 2.5 µM |
| C[C@H]1[C@H](C)CC[C@]2(C(=O)NO)CC[C@]3(C)C(=CC[C@@H]4[C@@]5(C)CC[C@H](O)C(C)(C)[C@@H]5CC[C@]43C)[C@H]12 | 7.5 µM | 6.7 µM | 13.1 µM | 9.4 µM | 4.6 µM | 18.1 µM | 5.5 µM |
| CN(O)C(=O)[C@]12CCC(C)(C)C[C@H]1C1=CC[C@@H]3[C@@]4(C)CCC(=O)C(C)(C)[C@@H]4CC[C@@]3(C)[C@]1(C)CC2 | 11.9 µM | 8.1 µM | 16.4 µM | 12.9 µM | 4.8 µM | 14.1 µM | 9.2 µM |
| CONC(=O)[C@]12CCC(C)(C)C[C@H]1C1=CC[C@@H]3[C@@]4(C)CCC(=O)C(C)(C)[C@@H]4CC[C@@]3(C)[C@]1(C)CC2 | 18.6 µM | 4.8 µM | 20 µM | 17.7 µM | 6.1 µM | 23.1 µM | 12.2 µM |
| CON(C)C(=O)[C@]12CC[C@@H](C)[C@H](C)[C@H]1C1=CC[C@@H]3[C@@]4(C)CC[C@H](O)C(C)(C)[C@@H]4CC[C@@]3(C)[C@]1(C)CC2 | 18.4 µM | 11.6 µM | 18.7 µM | 22.9 µM | 21.8 µM | 26.8 µM | 23.3 µM |
| CON(C)C(=O)[C@]12CC[C@@H](C)[C@H](C)[C@H]1C1=CC[C@@H]3[C@@]4(C)CC[C@H](OC(C)=O)C(C)(C)[C@@H]4CC[C@@]3(C)[C@]1(C)CC2 | 17.6 µM | 9.6 µM | 15.4 µM | 12.7 µM | 9.8 µM | 15 µM | 23 µM |
| CC(=O)O[C@H]1CC[C@]2(C)[C@H]3CC=C4[C@@H]5[C@@H](C)[C@H](C)CC[C@]5(C(=O)N(C)O)CC[C@@]4(C)[C@]3(C)CC[C@H]2C1(C)C | 8.7 µM | 5.7 µM | 7.9 µM | 8.4 µM | 6.5 µM | 11.3 µM | 6.6 µM |
| CONC(=O)[C@]12CC[C@@H](C)[C@H](C)[C@H]1C1=CC[C@@H]3[C@@]4(C)CC[C@H](OC(C)=O)C(C)(C)[C@@H]4CC[C@@]3(C)[C@]1(C)CC2 | 13.2 µM | 6.6 µM | 6.8 µM | 15.5 µM | 10.6 µM | 12.1 µM | 14.8 µM |
| CC1(C)CC[C@]2(C(=O)NO)CC[C@]3(C)C(=CC[C@@H]4[C@@]5(C)CC[C@H](O)C(C)(C)[C@@H]5CC[C@]43C)[C@@H]2C1 | 4.7 µM | 4.7 µM | 8.2 µM | 5.5 µM | 3.4 µM | 8.2 µM | 4.3 µM |
| CONC(=O)[C@]12CCC(C)(C)C[C@H]1C1=CC[C@@H]3[C@@]4(C)CC[C@H](O)C(C)(C)[C@@H]4CC[C@@]3(C)[C@]1(C)CC2 | 18.8 µM | 20.9 µM | 17 µM | 12.8 µM | 12.3 µM | 14.3 µM | 18.2 µM |
| CONC(=O)[C@]12CCC(C)(C)C[C@H]1C1=CC[C@@H]3[C@@]4(C)CC[C@H](OC(C)=O)C(C)(C)[C@@H]4CC[C@@]3(C)[C@]1(C)CC2 | 17.5 µM | 18.6 µM | 9.1 µM | 14.2 µM | 10.8 µM | 12.3 µM | 13.2 µM |
| C[C@H]1[C@H](C)CC[C@]2(C(=O)N(C)O)CC[C@]3(C)C(=CC[C@@H]4[C@@]5(C)CCC(=O)C(C)(C)[C@@H]5CC[C@]43C)[C@H]12 | 12.8 µM | 9.3 µM | 17.6 µM | 12.4 µM | 4 µM | 17.6 µM | 10.5 µM |
| CN(O)C(=O)[C@]12CCC(C)(C)C[C@H]1C1=CC[C@@H]3[C@@]4(C)CC[C@H](O)C(C)(C)[C@@H]4CC[C@@]3(C)[C@]1(C)CC2 | 8.7 µM | 9.8 µM | 8.3 µM | 11.6 µM | 3.9 µM | 5.8 µM | 11.1 µM |
| CON(C)C(=O)[C@]12CCC(C)(C)C[C@H]1C1=CC[C@@H]3[C@@]4(C)CC[C@H](O)C(C)(C)[C@@H]4CC[C@@]3(C)[C@]1(C)CC2 | 5.6 µM | 11.8 µM | 16.2 µM | 3.3 µM | 3.4 µM | 29.8 µM | 20.4 µM |
| C=C(C)[C@@H]1CC[C@]2(C(=O)O)CC[C@]3(C)[C@H](CC[C@@H]4[C@@]5(C)CC[C@H](O)C(C)(C)[C@@H]5CC[C@]43C)[C@@H]12 [BETULINIC ACID] | 14.4 µM |  |  | 9.4 µM |  | 15.3 µM |  |
| CC1(C)CC[C@]2(C(=O)O)CC[C@]3(C)C(=CC[C@@H]4[C@@]5(C)CC[C@H](O)C(C)(C)[C@@H]5CC[C@]43C)[C@@H]2C1 [OLEANOLIC_ACID] | 38.8 µM | 72.3 µM | 80 µM | 64.3 µM | 14 µM | 75.4 µM | 76.4 µM |
| C[C@H]1[C@H](C)CC[C@]2(C(=O)O)CC[C@]3(C)C(=CC[C@@H]4[C@@]5(C)CC[C@H](O)C(C)(C)[C@@H]5CC[C@]43C)[C@H]12 [URSOLIC ACID] |  |  |  |  | 11.7 µM | 14.2 µM | 18.7 µM |
